{"source": "patent US20240262804A1", "about": "“NITROGEN-CONTAINING HETEROCYCLIC KETONES, PREPARATION METHODS AND MEDICINAL USES THEREOF” (Hansoh Bio LLC, priority 2021, published 2024)", "key": {"bovine cardiac myosin": {"target": "bovine cardiac myosin (Bos taurus (Bovine), UniProt Q9BE39)", "sequence (Q9BE39 whole entry)": "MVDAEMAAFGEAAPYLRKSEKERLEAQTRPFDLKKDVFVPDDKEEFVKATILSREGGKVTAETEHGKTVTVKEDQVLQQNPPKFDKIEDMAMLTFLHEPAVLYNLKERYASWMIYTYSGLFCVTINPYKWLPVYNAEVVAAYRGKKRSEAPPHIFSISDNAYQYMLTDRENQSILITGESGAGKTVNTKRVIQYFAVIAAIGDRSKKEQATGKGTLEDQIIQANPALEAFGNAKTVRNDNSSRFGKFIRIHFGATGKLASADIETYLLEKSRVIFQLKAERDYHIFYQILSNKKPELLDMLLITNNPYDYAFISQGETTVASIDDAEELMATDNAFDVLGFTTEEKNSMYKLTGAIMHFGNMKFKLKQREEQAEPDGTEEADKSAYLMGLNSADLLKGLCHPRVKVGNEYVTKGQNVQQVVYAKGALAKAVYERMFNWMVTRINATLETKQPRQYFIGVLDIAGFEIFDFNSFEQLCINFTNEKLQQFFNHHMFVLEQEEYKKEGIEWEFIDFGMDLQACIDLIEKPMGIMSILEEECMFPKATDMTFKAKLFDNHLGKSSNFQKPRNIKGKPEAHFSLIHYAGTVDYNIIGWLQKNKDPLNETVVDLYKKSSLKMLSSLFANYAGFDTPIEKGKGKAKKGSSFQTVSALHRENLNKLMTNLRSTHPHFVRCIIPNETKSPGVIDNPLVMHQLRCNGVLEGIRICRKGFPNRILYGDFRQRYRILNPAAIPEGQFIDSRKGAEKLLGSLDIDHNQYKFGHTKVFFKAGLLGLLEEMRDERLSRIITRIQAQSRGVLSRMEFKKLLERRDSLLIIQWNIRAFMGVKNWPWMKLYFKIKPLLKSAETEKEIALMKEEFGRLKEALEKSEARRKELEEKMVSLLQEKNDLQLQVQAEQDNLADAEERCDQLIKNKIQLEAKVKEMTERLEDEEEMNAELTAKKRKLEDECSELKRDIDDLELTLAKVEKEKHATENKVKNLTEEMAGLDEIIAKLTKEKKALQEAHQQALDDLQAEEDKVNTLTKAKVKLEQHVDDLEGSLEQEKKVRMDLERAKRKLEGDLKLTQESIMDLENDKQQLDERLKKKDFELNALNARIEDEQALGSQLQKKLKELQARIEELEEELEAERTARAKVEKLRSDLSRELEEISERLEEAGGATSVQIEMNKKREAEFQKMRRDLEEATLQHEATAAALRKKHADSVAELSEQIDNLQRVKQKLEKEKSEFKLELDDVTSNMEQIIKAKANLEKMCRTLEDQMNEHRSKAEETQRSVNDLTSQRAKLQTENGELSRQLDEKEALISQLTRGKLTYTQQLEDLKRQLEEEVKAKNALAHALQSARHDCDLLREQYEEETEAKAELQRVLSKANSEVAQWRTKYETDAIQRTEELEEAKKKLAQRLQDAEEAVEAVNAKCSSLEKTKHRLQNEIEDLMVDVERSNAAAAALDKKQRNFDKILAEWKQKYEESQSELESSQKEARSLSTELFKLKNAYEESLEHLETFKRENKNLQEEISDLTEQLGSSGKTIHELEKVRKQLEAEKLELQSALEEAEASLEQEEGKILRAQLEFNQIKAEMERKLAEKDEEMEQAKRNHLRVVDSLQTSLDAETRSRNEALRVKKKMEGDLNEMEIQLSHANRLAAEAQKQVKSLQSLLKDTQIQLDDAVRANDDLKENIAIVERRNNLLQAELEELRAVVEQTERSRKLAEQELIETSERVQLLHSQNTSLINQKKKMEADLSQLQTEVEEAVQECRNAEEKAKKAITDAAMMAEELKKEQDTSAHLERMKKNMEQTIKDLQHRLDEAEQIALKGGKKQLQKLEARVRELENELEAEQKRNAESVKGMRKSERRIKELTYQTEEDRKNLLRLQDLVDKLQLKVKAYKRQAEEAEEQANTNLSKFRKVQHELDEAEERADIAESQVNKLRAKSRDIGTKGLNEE", "sequence (P85100 whole entry partner)": "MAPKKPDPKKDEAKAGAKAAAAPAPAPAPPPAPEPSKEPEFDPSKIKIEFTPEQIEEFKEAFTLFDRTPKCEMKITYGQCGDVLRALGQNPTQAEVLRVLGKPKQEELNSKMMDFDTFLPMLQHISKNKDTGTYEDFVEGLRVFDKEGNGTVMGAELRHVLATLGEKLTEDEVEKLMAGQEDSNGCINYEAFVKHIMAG", "sequence (Q3SZE5 whole entry partner)": "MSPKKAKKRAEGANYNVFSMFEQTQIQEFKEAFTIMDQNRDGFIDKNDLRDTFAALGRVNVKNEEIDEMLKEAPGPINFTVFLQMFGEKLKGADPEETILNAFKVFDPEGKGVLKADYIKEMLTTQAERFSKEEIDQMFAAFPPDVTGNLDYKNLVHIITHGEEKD", "test": "Myosin inhibitory potency: PK/LDH-coupled ATPase assay on bovine skinned cardiac myofibrils", "type": "biochemical", "details": "pCa=6.25, 50 μM ATP, 25° C., read-out: myosin inhibition activity IC50", "outline": "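Bovine left-ventricle skinned myofibrils (1 mg/mL) in PM12 buffer pH 6.8 at pCa 6.25, 50 μM ATP, PK/LDH-coupled NADH depletion read at 340 nm, 25 °C.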"}, "[1]": {"test_system": "isolated rat ventricular myocytes", "test": "Cardiomyocyte contractility assay (sarcomere shortening, IonOptix)", "type": "cell-based", "protocol": "The effects of compounds on sarcomere shortening in isolated rat ventricular myocytes were assessed using the IonOptix apparatus.\nMyocytes were placed in a chamber mounted on the stage of an inverted microscope and continuously superfused with oxygenated Tyrode solution containing (in millimolar): 121 NaCl, 5 KCl, 2.8 NaCH3CO2, MgCl2·6H2O, Glucose, NaHCO3, Na2HPO4. 7H2O, and 1.5 mM CaCl2). Solution was preheated at 36±1° C. and electrical-field stimulated at 1 Hz by 2 platinum electrodes connected to a Myopacer field stimulator (IonOptix Corporation) with 4 ms square-wave bipolar pulses (10 V). Cells were illuminated by the microscope light. The cell image was collected by a x40 ultraviolet epifluorescence objective, diverted to the microscope side port, where the cell image was recorded by a charge coupled device (CCD) camera (MyoCam, IonOptix Corporation), converting optical brightness (pixels) into electrical signals (voltage). The MyoCam configuration allowed acquisition of up to 240 images per second (240 Hz frame rate). Contractile properties of the myocytes were analyzed in real time by a video detector and a personal computer-based data acquisition system (Ionwizard 6.0, IonOptix Corporation). Only myocytes with clear striations, quiescent prior to pacing with a resting sarcomere length greater or equal to 1.75 μm were used, since this is presumed to represent the lower limit for healthy cells.\nSarcomere shortening was monitored in control solution (predrug) until stable recordings were obtained (baseline period). To determine the response to compounds, myocytes were first superfused for 60 seconds with Tyrode's buffer followed by at least a 5 minute—(or until steady state was reached, up to 10 min) superfusion of compound. Each cell was subjected to 2 concentrations (5 and 15 uM or 5 and 10 uM) of test compounds. For some cells, a washout period was performed after the last concentration. Duration of the washout period was variable, resulting in variability in the washout data. In separate cells, a single concentration of isoproterenol (100 nM) was applied. Data were continuously recorded using the IonOptix software. Contractility data were analyzed using Ionwizard software (IonOptix). For each cell, 10-15 contractility transients at baseline and after treatment were averaged and compared."}, "[2]": {"test_system": "heart function (cardiac contractility)", "test": "Echocardiography assessment of acute pharmacodynamic effect in rat cardiac contractility", "type": "in vivo", "details": "Spraw-Dawley rats", "protocol": "The Effect of Compounds on Heart Function was Determined by Echocardiography in Spraw-Dawley rats. Rats were under light anesthesia with 1-2% isoflurane. Compounds were dosed via oral gavage as single PO. Baseline heart functions were measured 1 day before dosing. The effect of compounds on heart function were measured at 1, 3, 6, and 24 hours post dosing. About 250 μL of whole blood was obtained at ˜1, 3, 6 and 24 hours post-dose via tail vein, immediately after the Echocardiography procedure. Blood was placed into a plasma separator tube containing K2 EDTA and kept on wet ice until processing. Blood samples were centrifuged at 2,000 g (4,400 rpm, Eppendorf 5417R) for 10 minutes at 4° C. Plasma samples were then transferred into micro-tubes and stored at −80° C. for future LC/MS analysis. The data were plotted as reduction of Fractional shortening vs plasma compound concentration. Therapeutic windows were determined as IC50/IC10 according to the literature (DOI: https://doi.org/10.1021/acs.jmedchem.1c01290)."}, "[3]": {"test_system": "rabbit skinned skeletal myofibrils (myosin)", "test": "Myosin inhibitory potency comparison: ATPase assay, skeletal myofibrils", "type": "biochemical", "protocol": "(§1) In our experiments, bovine skinned cardiac myofibrils were isolated from the frozen bovine left ventricle as myosin's source in the ATPase assay. The calcium concentration that achieves a 50% (pCa50 or pCa=6.25) activation of the myofibril system was chosen as the final condition for assessing the activation activity according to the literature (DOI: 10.1074/jbc.M117.776815). Myofibrils ATPase activity was measured in a buffered solution containing 12 mM PIPES (piperazine-N, N′-bis(2-ethane sulfonic acid) and 2 mM magnesium chloride at pH 6.8 (PM12 buffer). Final assay conditions were 1 mg/mL of bovine cardiac myofibrils, 1:20 of stock PK/LDH (Sigma-Aldrich, Cat No. P0294-5X5ML), 50 μM ATP, 1 mM DTT (dithiothreitol), 0.75 mM NADH, 1.5 mM PEP at pCa50 (pCa=6.25). Compounds were dissolved in DMSO (dimethyl sulfoxide). Serial dilution of compounds was created such that the final desired concentration of compound would be achieved in a volume of 150 μL with a fixed DMSO concentration of 2% (v/v). 75 μL of a solution containing bovine cardiac myofibrils, PK/LDH, and calcium were added to a 96 well plate for a 7 point dose-response. In some circumstances, 10 point-response was used to repeat the ATPase assays on compounds of interest. Compounds were added to the myofibrils solution and incubated for 5 minutes. The enzymatic reaction was started with the addition of 75 μL of a solution containing ATP, PEP, NADH, compounds, and calcium. The ATPase activity was measured by reading absorbance at 340 nm in a PerkinElmer Victor Nivo plate reader at 25° C. in kinetic mode for 15 minutes using clear bottom plates. The slopes of the absorbance changes as a function of time for the first 10 minutes were normalized to slopes on the control wells containing all reagents, including DMSO, but without compounds. This normalized rate was then plotted as a function of small molecule concentration in GraphPad prism 9. The data were fitted to a four-parameter fit, and IC50 was calculated using Graphpad Prism 9.\n(§2) Bovine skinned cardiac myofibrils were isolated from the frozen bovine left ventricle, and rabbit skinned skeletal myofibrils were isolated from the frozen rabbit Psoas major and minor muscles as myosin's source in the ATPase assay. The calcium concentration that achieves a 50% activation of the myofibril system (pCa=6.25 for bovine cardiac myofibrils and pCa=6 for rabbit skeletal myofibrils) was chosen as the final condition for assessing the activation activity according to the literature (DOI:10.1074/jbc.M117.776815). Rest of ATPase assay conditions are the same as illustrated in experiment 1."}, "[4]": {"test": "Pharmacokinetic profiles in male SD rats (IV and PO)", "type": "in vivo, rat", "details": "IV 1 mg/kg, PO 5 mg/kg, route for this parameter not given", "protocol": "Pharmacokinetic profile of compounds were determined by IV (1 mg/Kg) and PO (5 mg/Kg) administrations in male SD rats. Compounds were administrated with free base and formulated in 5% DMAC+25% PEG-400+70%(30% 2-HP-β-CD in water). The compounds were dosed at 1 mg/kg for intravenous and 5 mg/kg oral administration. Blood samples were collected at 0, 0.083, 0.25, 0.5, 1, 2, 4, 8 and 24 hours post dose, serial bleeding for plasma for the IV group. Blood samples were collected at 0, 0.25, 0.5, 1, 2, 4, 6, 8 and 24 hours post dose, serial bleeding for the PO group. Approximately 150 μL whole blood/time point were collected in K2EDTA tube via jugular vein. Blood sample was put on ice and centrifuged at 2000 g for 5 min to obtain plasma sample within 15 minutes. PK parameters were estimated by non-compartmental model using WinNonlin 8.2."}, "[5]": {"target": "bovine skinned cardiac myofibrils (myosin) (Bos taurus (Bovine), UniProt Q9BE39)", "sequence (Q9BE39 whole entry)": "as the sequence (Q9BE39 whole entry) above", "sequence (P85100 whole entry partner)": "as the sequence (P85100 whole entry partner) above", "sequence (Q3SZE5 whole entry partner)": "as the sequence (Q3SZE5 whole entry partner) above", "test": "Myosin inhibitory potency comparison: ATPase assay, cardiac myofibrils", "type": "biochemical", "details": "pCa=6.25", "protocol": "as §1, §2"}}}
{"smiles": "C[C@H](Nc1nc(=O)n(C2CCOCC2)c(=O)[nH]1)c1ccc(F)cc1F", "note": "[Example 10]", "values": [{"measurement": "IC50", "setting": "bovine cardiac myosin", "value": 1840, "unit": "nM"}, {"measurement": "Ratio of % FS 5 uM/15 uM", "setting": "[1]; 5 uM versus 15 uM", "value": 1.2}, {"measurement": "% FS (% reduction from baseline) at 5 uM", "setting": "[1]; 5 uM, rat ventricular myocytes, paced at 1 Hz", "value": "51 +/− 6%"}, {"measurement": "% FS (% reduction from baseline) at 15uM", "setting": "[1]; 15 uM, rat ventricular myocytes, paced at 1 Hz", "value": "41.5 +/− 6.3%"}, {"measurement": "effect on heart contractility at 20 mpk (FIG. 2)", "setting": "[2]; single PO, 20 mpk", "value": "do not further inhibit heart contractility at 20 mpk"}, {"measurement": "effect on heart contractility, dose dependence (FIG. 2)", "setting": "[2]; single PO, up to 10 mpk", "value": "dose dependent under 10 mpk"}, {"measurement": "therapeutic window, plasma exposure vs fractional shortening (in words)", "setting": "[2]; therapeutic window as IC50/IC10", "value": "superior therapeutic windows"}, {"measurement": "cardiac-skeletal myosin selectivity (in words)", "setting": "[3]", "value": "better cardiac-skeletal myosin selectivity"}, {"measurement": "potency in inhibiting fast skeletal myofibril activity (in words)", "setting": "[3]; compared with cardiac myofibrils", "value": "way less potent"}, {"measurement": "Skeleta/Cardiac", "setting": "[3]; ratio of skeletal IC50 to cardiac IC50", "value": 29.01}, {"measurement": "DNAUC", "setting": "[4]", "value": 1724.7, "unit": "ng·h/mL"}, {"measurement": "clearance", "setting": "[4]; rat, plasma", "value": 9.17, "unit": "mL/min/kg"}, {"measurement": "half-life", "setting": "[4]; rat, plasma", "value": 271, "unit": "min"}, {"measurement": "Vd", "setting": "[4]; rat, plasma, read-out: VSS", "value": 1.78, "unit": "L/kg"}, {"measurement": "IC50", "setting": "[5]", "value": 1500, "unit": "nM"}]}
